Assays:
Assay type in all cases: cell-based, human
SQSTM1 mRNA = test: RT-PCR of SQSTM1 (p62) mRNA in GBM cells; conditions: PD 5 μM and 10 μM, 24 hours, both GBM cells
Method: FIGS. 3A to 3C show the results that PD inhibits autophagic flux in GBM cells. […] The expression of LC3B and SQSTM1 was confirmed by immunoblot analysis. […] GAPDH was used as a loading control.
Total RNA was isolated using the Easy-Blue RNA extraction kit (iNtRON Biotech, Sungnam, Korea) according to the manufacturer's directions. 1 μg of the total RNA was reverse transcribed using a cDNA synthesis kit (TaKaRa, Otsu, Shinga, Japan) according to the manufacturer's instructions. The obtained cDNA was then amplified by PCR in a reaction mixture consisting of 10× Taq buffer, 2.5 mM dNTP mixture, Taq DNA polymerase (Takara), and corresponding primer sets. The primer sequences were as follows. Human SQSTM1-forward: 5′-GAACTCCAGTCCCTACAGATGCC-3′ (SEQ ID NO: 1), SQSTM1-reverse: 5′-CGGGAGATGTGGGTACAAGG 2-3′ (SEQ ID NO: 2); Human LDLR-forward: 5′-CAG ATA TCA TCA ACG AAG C-3′ (SEQ ID NO: 3), LDLR-reverse: 5′-CCTCTCACACCAGTTCACTCC-3′ (SEQ ID NO: 4); Human GAPDH-forward: 5′-CGTCTTCACCACCATGGAGA-3′ (SEQ ID NO: 5), GAPDH—reverse: 5′-CGGCCATCACGCCACAGTTT-3′ (SEQ ID NO: 6). The PCR products were analyzed by 1.5% agarose gels.

[1] = system: PARP, caspase-3, BCL-2 and BAX; test: Immunoblot of apoptosis markers (PARP, caspase-3, BCL-2, BAX) in GBM cells; conditions: PD, 24 hours
Method: FIGS. 7A and 7B show the results that PD induces non-apoptotic cell death. […] GAPDH was used as a loading control. […] Data shown represent the means of quintuplicate measurements which were repeated three times. The results are presented as a percentage of control (means±SD).
Cells treated with the concentrations and materials described in FIGS. 1-3B, 7, 8, 10, 13, 16, 18, and 20 were lysed in buffer containing 20 mM Tris-HCl (pH 7.5), 150 mM NaCl, 1 mM EDTA, 1 mM Na2EDTA, 1 mM EGTA, 1% NP-40, 1% sodium deoxycholate, 1 mM Na3VO4, 1 mM MPI, 1 mM PMSF, and PI cocktails for 15 to 20 minutes on ice. Cell lysates were separated by SDS-PAGE and transferred to nitrocellulose membranes. Immunodetection was performed with the following primary antibodies: rabbit anti-LC3B, rabbit anti-cathepsin B, rabbit-anti GAPDH (Cell Signaling Technology, Danvers, Mass.), mouse anti-SQSTM1/p62, and goat anti-cathepsin D (Santa CruzKPL, Gaithersburg, Md., USA) were incubated at room temperature for 1 hour. The protein bands were detected with ECL western Blotting Substrate (Thermo Fisher Scientific, Waltham, Mass., USA).
Therefore, whether PD-mediated autophagy inhibition promotes apoptosis in GBM cells was examined by western blot analysis. Activation of caspase-3 and cleavage of its substrate, PARP, are hallmarks of apoptosis. […]

p-ERK = test: Immunoblot of ERK phosphorylation, U373MG cells; conditions: PD treatment, 24 hours
Method: FIGS. 10A to 10D show the results that PD-mediated autophagy inhibition is independent of mTOR and MAPK signaling pathways. FIGS. 10A to 10C show the results in which cells were treated with PD (0 μM, 0.5 μM, 1 μM, 5 μM, and 10 μM) for 24 hours. The immunoblot analyses for p-ULK1 (Ser757), ULK1, p-S6K (Thr389), p-AKT (Ser473), ERK2, P-ERK, p-JNK1, Beclin, and ATG7 were performed using lysates from GBMs. […] Total protein extracts were analyzed by immunoblot analyses for p-ERK, LC3B, and SQSTM1. GAPDH was used as an internal control.
Cells treated with the concentrations and materials described in FIGS. 1-3B, 7, 8, 10, 13, 16, 18, and 20 were lysed in buffer containing 20 mM Tris-HCl (pH 7.5), 150 mM NaCl, 1 mM EDTA, 1 mM Na2EDTA, 1 mM EGTA, 1% NP-40, 1% sodium deoxycholate, 1 mM Na3VO4, 1 mM MPI, 1 mM PMSF, and PI cocktails for 15 to 20 minutes on ice. Cell lysates were separated by SDS-PAGE and transferred to nitrocellulose membranes. […] The protein bands were detected with ECL western Blotting Substrate (Thermo Fisher Scientific, Waltham, Mass., USA).
Previous studies have shown that PD enhances autophagy via mTOR/MAPK pathway. […] It is known that mTORC1 activation, measured by S6K phosphorylation, inhibits autophagy initiation by phosphorylating the ULK1 (Ser 757). […]

cell-surface LDLR = test: Cell surface LDLR analysis by flow cytometry, normal astrocytes; conditions: PD 10 μM or U18666a 1 μM, 24 hours
Method: FIGS. 16A to 16D show the results that PD increases the expression of LDLR on cell surfaces in GBM cells. […] GAPDH was used as a loading control. […] GAPDH was used as a loading control.
Cells treated as described in FIG. 16 were separated from plates and resuspended in PBS. After washing with 1% BSA in PBS, the cells were incubated with a primary antibody against human LDLR (Abcam) for 30 minutes. Then, the cells were washed before incubation with an Alexa-Fluor 488-conjugated secondary antibody (Invitrogen) for 30 minutes. The stained cells were washed and resuspended. Fluorescence was analyzed by a FACScalibur flow cytometer (Becton Dickinson, San Jose, Calif., USA) using CellQuest™ software.
Brain is the most cholesterol-rich organ of the body, containing about 20% of total body cholesterol. […] As can be confirmed in FIG. 16A, in consistent with these reports, the LDLR protein level was markedly elevated in U87MG and U373MG cells relative to normal human astrocytes. […] Then, the cell surface expression of LDLR was confirmed by flow cytometry.

C[C@@H]1O[C@@H](O[C@H]2[C@H](OC(=O)[C@]34CCC(C)(C)C[C@H]3C3=CC[C@@H]5[C@@]6(C)C[C@H](O)[C@H](O[C@@H]7O[C@H](CO)[C@@H](O)[C@H](O)[C@H]7O)C(CO)(CO)[C@@H]6CC[C@@]5(C)[C@]3(C)C[C@H]4O)OC[C@H](O)[C@@H]2O)[C@H](O)[C@H](O)[C@H]1O[C@@H]1OC[C@@H](O)[C@H](O[C@@H]2OC[C@](O)(CO)[C@H]2O)[C@H]1O [PD, platycodin D]
p62 mRNA levels (SQSTM1 mRNA): did not alter
caspase-3 activation and PARP cleavage [1]: no significant induction
expressions of Bcl2 and BAX [1]: not changed
phosphorylation levels of ERK (p-ERK): markedly increased
changes in peak shift (cell surface LDLR) (cell-surface LDLR): very negligible

From patent publication US11351218B2, “Composition for preventing or treating glioblastoma comprising Platycodon grandiflorum A. De Candolle, Scutellaria baicalensis, Phellodendron amurense Ruprecht or Rubus coreanus” (University-Industry Cooperation Group of Kyung Hee …, priority 2019, dated 2022)
